Reference: ChEMBL document CHEMBL3885881, “DrugMatrix”

Species: Rattus norvegicus
Experiment: DrugMatrix - Regimen: Daily Repeat
Format: toxicity, organism-based, Sprague-Dawley
Parameters: regimen Daily Repeat, gender Male, age 6-8 weeks
Conditions: in vivo, po, route oral GAVAGE, vehicle 100 % WATER; for ABSOLUTE BASOPHIL / ABSOLUTE EOSINOPHIL / ABSOLUTE LYMPHOCYTE / ABSOLUTE MONOCYTE / ABSOLUTE SEGMENTED NEUTROPHIL / BASOPHIL / EOSINOPHIL / ERYTHROCYTE COUNT / HEMATOCRIT / HEMOGLOBIN / LEUKOCYTE COUNT / LYMPHOCYTE / MEAN CORPUSCULAR HEMOGLOBIN / MEAN CORPUSCULAR HEMOGLOBIN CONCENTRATION / MEAN CORPUSCULAR VOLUME / MONOCYTE / NEUTROPHIL / NUCLEATED RED BLOOD CELLS / PLATELET COUNT: tissue Blood; for ALANINE AMINOTRANSFERASE / ALBUMIN / ALKALINE PHOSPHATASE / ASPARTATE AMINOTRANSFERASE / BLOOD UREA NITROGEN / CARBON DIOXIDE / CHLORIDE / CHOLESTEROL / CREATINE PHOSPHOKINASE / CREATININE / GLUCOSE / LACTATE DEHYDROGENASE / LIPASE / PHOSPHORUS / POTASSIUM / SODIUM / TOTAL BILIRUBIN / TOTAL PROTEIN / URIC ACID: tissue Plasma
[1] = 0 mg/kg, 72 h, dose level Control, time 3 day
[2] = 0 mg/kg, 120 h, dose level Control, time 5 day
[3] = 100 mg/kg, 72 h, dose level Low, time 3 day

NCC1(CC(=O)O)CCCCC1 [GABAPENTIN]
ABSOLUTE BASOPHIL [1]: 0 CELLS/uL | ABSOLUTE EOSINOPHIL [1]: 133.83 CELLS/uL | ABSOLUTE LYMPHOCYTE [1]: 11674.67 CELLS/uL | ABSOLUTE MONOCYTE [1]: 65.33 CELLS/uL | ABSOLUTE SEGMENTED NEUTROPHIL [1]: 1559.5 CELLS/uL | BASOPHIL [1]: 0% | EOSINOPHIL [1]: 1% | ERYTHROCYTE COUNT [1]: 5.26 x10E6/uL | HEMATOCRIT [1]: 34.15% | HEMOGLOBIN [1]: 13.6 G/DL | LEUKOCYTE COUNT [1]: 13.43 x10E3/uL | LYMPHOCYTE [1]: 86.83% | MEAN CORPUSCULAR HEMOGLOBIN [1]: 25.87 pg | MEAN CORPUSCULAR HEMOGLOBIN CONCENTRATION [1]: 39.85 G/DL | MEAN CORPUSCULAR VOLUME [1]: 64.93 fL | MONOCYTE [1]: 0.5% | NEUTROPHIL [1]: 11.67% | NUCLEATED RED BLOOD CELLS [1]: 0.17 /100WBC | PLATELET COUNT [1]: 1188.5 x10E3/uL | ALANINE AMINOTRANSFERASE [1]: 48.5 u/L | ALBUMIN [1]: 4.1 G/DL | ALKALINE PHOSPHATASE [1]: 338.83 u/L | ASPARTATE AMINOTRANSFERASE [1]: 84.17 u/L | BLOOD UREA NITROGEN [1]: 15.17 mg/dL | CARBON DIOXIDE [1]: 26.83 mmol/L | CHLORIDE [1]: 101.33 MEQ/L | CHOLESTEROL [1]: 77 mg/dL | CREATINE PHOSPHOKINASE [1]: 600.83 u/L | CREATININE [1]: 0.15 mg/dL | GLUCOSE [1]: 161.67 mg/dL | LACTATE DEHYDROGENASE [1]: 222.17 u/L | LIPASE [1]: 10.17 u/L | PHOSPHORUS [1]: 12.63 mg/dL | POTASSIUM [1]: 6.36 MEQ/L | SODIUM [1]: 143.17 MEQ/L | TOTAL BILIRUBIN [1]: 0.17 mg/dL | TOTAL PROTEIN [1]: 5.65 G/DL | URIC ACID [1]: 1.38 mg/dL | ABSOLUTE BASOPHIL [2]: 0 CELLS/uL | ABSOLUTE EOSINOPHIL [2]: 66.5 CELLS/uL | ABSOLUTE LYMPHOCYTE [2]: 10848.67 CELLS/uL | ABSOLUTE MONOCYTE [2]: 106.17 CELLS/uL | ABSOLUTE SEGMENTED NEUTROPHIL [2]: 1028.67 CELLS/uL | BASOPHIL [2]: 0% | EOSINOPHIL [2]: 0.5% | ERYTHROCYTE COUNT [2]: 5.42 x10E6/uL | HEMATOCRIT [2]: 34.53% | HEMOGLOBIN [2]: 14.07 G/DL | LEUKOCYTE COUNT [2]: 12.05 x10E3/uL | LYMPHOCYTE [2]: 90% | MEAN CORPUSCULAR HEMOGLOBIN [2]: 25.98 pg | MEAN CORPUSCULAR HEMOGLOBIN CONCENTRATION [2]: 40.73 G/DL | MEAN CORPUSCULAR VOLUME [2]: 63.78 fL | MONOCYTE [2]: 1% | NEUTROPHIL [2]: 8.5% | NUCLEATED RED BLOOD CELLS [2]: 0 /100WBC | PLATELET COUNT [2]: 1256.33 x10E3/uL | ALANINE AMINOTRANSFERASE [2]: 55.17 u/L | ALBUMIN [2]: 4.3 G/DL | ALKALINE PHOSPHATASE [2]: 333.83 u/L | ASPARTATE AMINOTRANSFERASE [2]: 81.33 u/L | BLOOD UREA NITROGEN [2]: 15.67 mg/dL | CARBON DIOXIDE [2]: 30 mmol/L | CHLORIDE [2]: 100.67 MEQ/L | CHOLESTEROL [2]: 67.67 mg/dL | CREATINE PHOSPHOKINASE [2]: 221.33 u/L | CREATININE [2]: 0.16 mg/dL | GLUCOSE [2]: 161.33 mg/dL | LACTATE DEHYDROGENASE [2]: 166.83 u/L | LIPASE [2]: 8.33 u/L | PHOSPHORUS [2]: 12.63 mg/dL | POTASSIUM [2]: 5.98 MEQ/L | SODIUM [2]: 144.63 MEQ/L | TOTAL BILIRUBIN [2]: 0.2 mg/dL | TOTAL PROTEIN [2]: 6.15 G/DL | URIC ACID [2]: 1.17 mg/dL | ABSOLUTE BASOPHIL [3]: 0 CELLS/uL | ABSOLUTE EOSINOPHIL [3]: 86.33 CELLS/uL | ABSOLUTE LYMPHOCYTE [3]: 13178.33 CELLS/uL | ABSOLUTE MONOCYTE [3]: 43 CELLS/uL | ABSOLUTE SEGMENTED NEUTROPHIL [3]: 1125.67 CELLS/uL | BASOPHIL [3]: 0% | EOSINOPHIL [3]: 0.67% | ERYTHROCYTE COUNT [3]: 5.28 x10E6/uL | HEMATOCRIT [3]: 34.3% | HEMOGLOBIN [3]: 13.73 G/DL | LEUKOCYTE COUNT [3]: 14.43 x10E3/uL | LYMPHOCYTE [3]: 91% | MEAN CORPUSCULAR HEMOGLOBIN [3]: 26.1 pg | MEAN CORPUSCULAR HEMOGLOBIN CONCENTRATION [3]: 40.1 G/DL | MEAN CORPUSCULAR VOLUME [3]: 65 fL | MONOCYTE [3]: 0.33% | NEUTROPHIL [3]: 8% | NUCLEATED RED BLOOD CELLS [3]: 0 /100WBC | PLATELET COUNT [3]: 1169.33 x10E3/uL | ALANINE AMINOTRANSFERASE [3]: 52.33 u/L | ALBUMIN [3]: 4.17 G/DL | ALKALINE PHOSPHATASE [3]: 377.67 u/L | ASPARTATE AMINOTRANSFERASE [3]: 80 u/L | BLOOD UREA NITROGEN [3]: 14.33 mg/dL | CARBON DIOXIDE [3]: 27.33 mmol/L | CHLORIDE [3]: 103 MEQ/L | CHOLESTEROL [3]: 71 mg/dL | CREATINE PHOSPHOKINASE [3]: 245 u/L | CREATININE [3]: 0.17 mg/dL | GLUCOSE [3]: 170.67 mg/dL | LACTATE DEHYDROGENASE [3]: 111.67 u/L | LIPASE [3]: 9.67 u/L | PHOSPHORUS [3]: 11.67 mg/dL | POTASSIUM [3]: 6.11 MEQ/L | SODIUM [3]: 144.87 MEQ/L | TOTAL BILIRUBIN [3]: 0.23 mg/dL | TOTAL PROTEIN [3]: 5.67 G/DL | URIC ACID [3]: 1.6 mg/dL
